Assay results published in US8192962B2, “Processes for detecting toxic substances” (Daikin Industries, Ltd., priority 2001, dated 2012).

Tested on: Stress protein genes
Experiment: DNA chip mRNA expression in yeast, stress protein genes (Table 6)
Assay type: cell-based, Saccharomyces cerevisiae S288C
Method in brief: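 Measured as treated-to-untreated fluorescence ratio on a full-genome yeast DNA chip. Cells (S288C, YPD, 25° C.) were exposed in log phase for two hours to one chemical, dosed to curb growth without killing.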

## C=CC=O [(14), acrolein]
Yeast gene YAL005C
  The level of expressed mRNA in the presence of chemical substance/The level of expressed mRNA in the absence of chemical substance: 0.4
Yeast gene YAL015C
  The level of expressed mRNA in the presence of chemical substance/The level of expressed mRNA in the absence of chemical substance: 1.6
Yeast gene YBL075C
  The level of expressed mRNA in the presence of chemical substance/The level of expressed mRNA in the absence of chemical substance: 1.1
Yeast gene YBL093C
  The level of expressed mRNA in the presence of chemical substance/The level of expressed mRNA in the absence of chemical substance: 1.0
Yeast gene YBR044C
  The level of expressed mRNA in the presence of chemical substance/The level of expressed mRNA in the absence of chemical substance: 0.9
Yeast gene YBR054W
  The level of expressed mRNA in the presence of chemical substance/The level of expressed mRNA in the absence of chemical substance: 1.0
Yeast gene YBR067C
  The level of expressed mRNA in the presence of chemical substance/The level of expressed mRNA in the absence of chemical substance: 0.7
Yeast gene YBR072W
  The level of expressed mRNA in the presence of chemical substance/The level of expressed mRNA in the absence of chemical substance: 5.8
Yeast gene YBR126C
  The level of expressed mRNA in the presence of chemical substance/The level of expressed mRNA in the absence of chemical substance: 0.7
Yeast gene YBR169C
  The level of expressed mRNA in the presence of chemical substance/The level of expressed mRNA in the absence of chemical substance: 1.1
Yeast gene YCL035C
  The level of expressed mRNA in the presence of chemical substance/The level of expressed mRNA in the absence of chemical substance: 2.5
Yeast gene YCR021C
  The level of expressed mRNA in the presence of chemical substance/The level of expressed mRNA in the absence of chemical substance: 1.6
Yeast gene YCR060W
  The level of expressed mRNA in the presence of chemical substance/The level of expressed mRNA in the absence of chemical substance: 1.7
Yeast gene YCR083W
  The level of expressed mRNA in the presence of chemical substance/The level of expressed mRNA in the absence of chemical substance: 2.4
Yeast gene YDL022W
  The level of expressed mRNA in the presence of chemical substance/The level of expressed mRNA in the absence of chemical substance: 0.8
Yeast gene YDL025C
  The level of expressed mRNA in the presence of chemical substance/The level of expressed mRNA in the absence of chemical substance: 1.7
Yeast gene YDR033W
  The level of expressed mRNA in the presence of chemical substance/The level of expressed mRNA in the absence of chemical substance: 1.0
Yeast gene YDR077W
  The level of expressed mRNA in the presence of chemical substance/The level of expressed mRNA in the absence of chemical substance: 0.3
Yeast gene YDR098C
  The level of expressed mRNA in the presence of chemical substance/The level of expressed mRNA in the absence of chemical substance: 1.5
Yeast gene YDR155C
  The level of expressed mRNA in the presence of chemical substance/The level of expressed mRNA in the absence of chemical substance: 1.0
Yeast gene YDR258C
  The level of expressed mRNA in the presence of chemical substance/The level of expressed mRNA in the absence of chemical substance: 1.5
Yeast gene YDR293C
  The level of expressed mRNA in the presence of chemical substance/The level of expressed mRNA in the absence of chemical substance: 0.8
Yeast gene YDR436W
  The level of expressed mRNA in the presence of chemical substance/The level of expressed mRNA in the absence of chemical substance: 1.2
Yeast gene YDR513W
  The level of expressed mRNA in the presence of chemical substance/The level of expressed mRNA in the absence of chemical substance: 2.0
Yeast gene YDR519W
  The level of expressed mRNA in the presence of chemical substance/The level of expressed mRNA in the absence of chemical substance: 1.3
Yeast gene YEL030W
  The level of expressed mRNA in the presence of chemical substance/The level of expressed mRNA in the absence of chemical substance: 0.7
Yeast gene YEL039C
  The level of expressed mRNA in the presence of chemical substance/The level of expressed mRNA in the absence of chemical substance: 1.4
Yeast gene YER042W
  The level of expressed mRNA in the presence of chemical substance/The level of expressed mRNA in the absence of chemical substance: 5.2
Yeast gene YER057C
  The level of expressed mRNA in the presence of chemical substance/The level of expressed mRNA in the absence of chemical substance: 1.4
Yeast gene YER103W
  The level of expressed mRNA in the presence of chemical substance/The level of expressed mRNA in the absence of chemical substance: 0.9
Yeast gene YER125W
  The level of expressed mRNA in the presence of chemical substance/The level of expressed mRNA in the absence of chemical substance: 0.7
Yeast gene YFL014W
  The level of expressed mRNA in the presence of chemical substance/The level of expressed mRNA in the absence of chemical substance: 7.3
Yeast gene YFL016C
  The level of expressed mRNA in the presence of chemical substance/The level of expressed mRNA in the absence of chemical substance: 0.8
Yeast gene YFL020C
  The level of expressed mRNA in the presence of chemical substance/The level of expressed mRNA in the absence of chemical substance: 1.0
Yeast gene YFR052W
  The level of expressed mRNA in the presence of chemical substance/The level of expressed mRNA in the absence of chemical substance: 3.3
Yeast gene YGL073W
  The level of expressed mRNA in the presence of chemical substance/The level of expressed mRNA in the absence of chemical substance: 1.2
Yeast gene YGL115W
  The level of expressed mRNA in the presence of chemical substance/The level of expressed mRNA in the absence of chemical substance: 1.2
Yeast gene YGL181W
  The level of expressed mRNA in the presence of chemical substance/The level of expressed mRNA in the absence of chemical substance: 1.0
Yeast gene YGR088W
  The level of expressed mRNA in the presence of chemical substance/The level of expressed mRNA in the absence of chemical substance: 1.3
Yeast gene YHL028W
  The level of expressed mRNA in the presence of chemical substance/The level of expressed mRNA in the absence of chemical substance: 1.3
Yeast gene YHL046C
  The level of expressed mRNA in the presence of chemical substance/The level of expressed mRNA in the absence of chemical substance: 1.4
Yeast gene YHR030C
  The level of expressed mRNA in the presence of chemical substance/The level of expressed mRNA in the absence of chemical substance: 1.1
Yeast gene YHR057C
  The level of expressed mRNA in the presence of chemical substance/The level of expressed mRNA in the absence of chemical substance: 1.9
Yeast gene YHR104W
  The level of expressed mRNA in the presence of chemical substance/The level of expressed mRNA in the absence of chemical substance: 1.5
Yeast gene YIL011W
  The level of expressed mRNA in the presence of chemical substance/The level of expressed mRNA in the absence of chemical substance: 0.5
Yeast gene YIL033C
  The level of expressed mRNA in the presence of chemical substance/The level of expressed mRNA in the absence of chemical substance: 0.7
Yeast gene YIR037W
  The level of expressed mRNA in the presence of chemical substance/The level of expressed mRNA in the absence of chemical substance: 2.3
Yeast gene YIR038C
  The level of expressed mRNA in the presence of chemical substance/The level of expressed mRNA in the absence of chemical substance: 2.5
Yeast gene YJL128C
  The level of expressed mRNA in the presence of chemical substance/The level of expressed mRNA in the absence of chemical substance: 0.8
Yeast gene YJL158C
  The level of expressed mRNA in the presence of chemical substance/The level of expressed mRNA in the absence of chemical substance: 0.5
Yeast gene YJL159W
  The level of expressed mRNA in the presence of chemical substance/The level of expressed mRNA in the absence of chemical substance: 0.6
Yeast gene YJL165C
  The level of expressed mRNA in the presence of chemical substance/The level of expressed mRNA in the absence of chemical substance: 0.9
Yeast gene YJR045C
  The level of expressed mRNA in the presence of chemical substance/The level of expressed mRNA in the absence of chemical substance: 0.5
Yeast gene YJR090C
  The level of expressed mRNA in the presence of chemical substance/The level of expressed mRNA in the absence of chemical substance: 1.0
Yeast gene YKL161C
  The level of expressed mRNA in the presence of chemical substance/The level of expressed mRNA in the absence of chemical substance: 1.4
Yeast gene YKL163W
  The level of expressed mRNA in the presence of chemical substance/The level of expressed mRNA in the absence of chemical substance: 0.5
Yeast gene YKL164C
  The level of expressed mRNA in the presence of chemical substance/The level of expressed mRNA in the absence of chemical substance: 0.3
Yeast gene YKL210W
  The level of expressed mRNA in the presence of chemical substance/The level of expressed mRNA in the absence of chemical substance: 0.8
Yeast gene YKR053C
  The level of expressed mRNA in the presence of chemical substance/The level of expressed mRNA in the absence of chemical substance: 1.3
Yeast gene YLL024C
  The level of expressed mRNA in the presence of chemical substance/The level of expressed mRNA in the absence of chemical substance: 0.4
Yeast gene YLL026W
  The level of expressed mRNA in the presence of chemical substance/The level of expressed mRNA in the absence of chemical substance: 0.8
Yeast gene YLL039C
  The level of expressed mRNA in the presence of chemical substance/The level of expressed mRNA in the absence of chemical substance: 1.4
Yeast gene YLL060C
  The level of expressed mRNA in the presence of chemical substance/The level of expressed mRNA in the absence of chemical substance: 10.6
Yeast gene YLR006C
  The level of expressed mRNA in the presence of chemical substance/The level of expressed mRNA in the absence of chemical substance: 1.0
Yeast gene YLR109W
  The level of expressed mRNA in the presence of chemical substance/The level of expressed mRNA in the absence of chemical substance: 2.3
Yeast gene YLR259C
  The level of expressed mRNA in the presence of chemical substance/The level of expressed mRNA in the absence of chemical substance: 0.8
Yeast gene YML007W
  The level of expressed mRNA in the presence of chemical substance/The level of expressed mRNA in the absence of chemical substance: 1.2
Yeast gene YML070W
  The level of expressed mRNA in the presence of chemical substance/The level of expressed mRNA in the absence of chemical substance: 1.3
Yeast gene YMR021C
  The level of expressed mRNA in the presence of chemical substance/The level of expressed mRNA in the absence of chemical substance: 1.3
Yeast gene YMR173W
  The level of expressed mRNA in the presence of chemical substance/The level of expressed mRNA in the absence of chemical substance: 2.3
Yeast gene YMR186W
  The level of expressed mRNA in the presence of chemical substance/The level of expressed mRNA in the absence of chemical substance: 0.6
Yeast gene YNL064C
  The level of expressed mRNA in the presence of chemical substance/The level of expressed mRNA in the absence of chemical substance: 0.8
Yeast gene YNL160W
  The level of expressed mRNA in the presence of chemical substance/The level of expressed mRNA in the absence of chemical substance: 1.3
Yeast gene YNL241C
  The level of expressed mRNA in the presence of chemical substance/The level of expressed mRNA in the absence of chemical substance: 1.1
Yeast gene YNR076W
  The level of expressed mRNA in the presence of chemical substance/The level of expressed mRNA in the absence of chemical substance: 0.8
Yeast gene YOL064C
  The level of expressed mRNA in the presence of chemical substance/The level of expressed mRNA in the absence of chemical substance: 0.9
Yeast gene YOL161C
  The level of expressed mRNA in the presence of chemical substance/The level of expressed mRNA in the absence of chemical substance: 0.9
Yeast gene YOR008C
  The level of expressed mRNA in the presence of chemical substance/The level of expressed mRNA in the absence of chemical substance: 0.9
Yeast gene YOR009W
  The level of expressed mRNA in the presence of chemical substance/The level of expressed mRNA in the absence of chemical substance: 0.7
Yeast gene YOR010C
  The level of expressed mRNA in the presence of chemical substance/The level of expressed mRNA in the absence of chemical substance: 0.4
Yeast gene YOR027W
  The level of expressed mRNA in the presence of chemical substance/The level of expressed mRNA in the absence of chemical substance: 0.8
Yeast gene YOR208W
  The level of expressed mRNA in the presence of chemical substance/The level of expressed mRNA in the absence of chemical substance: 1.3
Yeast gene YPL059W
  The level of expressed mRNA in the presence of chemical substance/The level of expressed mRNA in the absence of chemical substance: 1.3
Yeast gene YPL106C
  The level of expressed mRNA in the presence of chemical substance/The level of expressed mRNA in the absence of chemical substance: 0.9
Yeast gene YPL140C
  The level of expressed mRNA in the presence of chemical substance/The level of expressed mRNA in the absence of chemical substance: 1.1
Yeast gene YPL194W
  The level of expressed mRNA in the presence of chemical substance/The level of expressed mRNA in the absence of chemical substance: 1.1
Yeast gene YPL223C
  The level of expressed mRNA in the presence of chemical substance/The level of expressed mRNA in the absence of chemical substance: 2.5
Yeast gene YPL240C
  The level of expressed mRNA in the presence of chemical substance/The level of expressed mRNA in the absence of chemical substance: 0.7
Yeast gene YPR005C
  The level of expressed mRNA in the presence of chemical substance/The level of expressed mRNA in the absence of chemical substance: 1.3
Yeast gene YPR026W
  The level of expressed mRNA in the presence of chemical substance/The level of expressed mRNA in the absence of chemical substance: 1.5
